# Laboratory results: PubChem BioAssay AID493135 (Sanford-Burnham Center for Chemical Genomics, 2011)
# Active and inactive are the calls of the source. How the calls were made is not given here.
# Target: intestinal alkaline phosphatase Alpi (Mus musculus)
# Test: mouse IAP enzyme inhibitors, SAR follow-up, biochemical, luminescence (AID 493135)
# Conditions: purified mouse IAP, luminescent substrate readout
row,SMILES,IC50
1,Cc1cc(Cl)ccc1NC(=S)NCCC(c1ccccc1)c1ccccc1,> 100 µM (inactive)
2,CC(C)N1CCC(=NNC(=O)c2cc(O)c(O)c(O)c2)CC1,24.9 µM
3,Cc1ccc(NC(=S)NCCC(c2ccccc2)c2ccccc2)cc1C,> 100 µM (inactive)
4,COc1cc(NC(=S)NCCC(c2ccccc2)c2ccccc2)cc(OC)c1,> 100 µM (inactive)
5,Cc1c(CN2CCC(C(=O)Nc3cccc(-c4cccc(Cl)c4)c3)CC2)cnn1C,> 100 µM (inactive)
6,C=CCn1cc(CN2CCC(C(=O)Nc3cccc(-c4cccc(Cl)c4)c3)CC2)c(C)n1,> 100 µM (inactive)
7,CCc1ccccc1Nc1nc(-c2ccc(O)c(O)c2)cs1,1.55 µM
8,C=CCn1cc(CN2CCC(C(=O)Nc3cccc(-c4cccc(F)c4)c3)CC2)c(C)n1,> 100 µM (inactive)
9,Cc1c(Cl)cccc1Nc1nc(-c2ccc(O)c(O)c2)cs1,7.51 µM
10,CC(C)n1cc(CN2CCC(C(=O)Nc3cccc(-c4cccc(Cl)c4)c3)CC2)cn1,> 100 µM (inactive)
11,Fc1ccccc1NC(=S)NCCC(c1ccccc1)c1ccccc1,> 100 µM (inactive)
12,Fc1ccc(NC(=S)NCCC(c2ccccc2)c2ccccc2)cc1Cl,> 100 µM (inactive)
13,CC(C)c1ccccc1NC(=S)NCCC(c1ccccc1)c1ccccc1,> 100 µM (inactive)
14,COc1cccc(NC(=S)NCCC(c2ccccc2)c2ccccc2)c1,> 100 µM (inactive)
15,Cc1cccc(NC(=S)NCCC(c2ccccc2)c2ccccc2)c1C,> 100 µM (inactive)
16,O=C(Nc1cccc(-c2cccc(Cl)c2)c1)C1CCN(C2CCC2)CC1,> 100 µM (inactive)
17,COc1ccc(Cl)cc1NC(=S)NCCC(c1ccccc1)c1ccccc1,> 100 µM (inactive)
18,CN(C)S(=O)(=O)c1cccc(NC(=S)NCCC(c2ccccc2)c2ccccc2)c1,> 100 µM (inactive)
19,Cc1nn(C(C)C)c(C)c1CN1CCC(C(=O)Nc2cccc(-c3cccc(F)c3)c2)CC1,> 100 µM (inactive)
20,CCn1cc(CN2CCC(C(=O)Nc3cccc(-c4cccc(F)c4)c3)CC2)cn1,> 100 µM (inactive)
21,Cn1cc(CN2CCC(C(=O)Nc3cccc(-c4cccc(Cl)c4)c3)CC2)cn1,> 100 µM (inactive)
22,CCN1CCN(S(=O)(=O)c2ccc3[nH]c(=O)oc3c2)CC1,> 100 µM (inactive)
23,CN1CCC(=NNC(=O)c2cc(O)c(O)c(O)c2)CC1,38.7 µM
24,CC(C)n1cc(CN2CCC(C(=O)Nc3cccc(-c4cccc(F)c4)c3)CC2)cn1,> 100 µM (inactive)

row,SMILES,IC50
1,COc1cc([N+](=O)[O-])ccc1NC(=S)NCCC(c1ccccc1)c1ccccc1,> 100 µM (inactive)
2,CCn1cc(CN2CCC(C(=O)Nc3cccc(-c4cccc(Cl)c4)c3)CC2)cn1,> 100 µM (inactive)
3,CCn1ncc(CN2CCC(C(=O)Nc3cccc(-c4cccc(F)c4)c3)CC2)c1C,> 100 µM (inactive)
4,COc1ccc(Cl)cc1Nc1nc(-c2ccc(O)c(O)c2)cs1,1.42 µM
5,Cc1cc(C)cc(NC(=S)NCCC(c2ccccc2)c2ccccc2)c1,> 100 µM (inactive)
6,FC(F)(F)c1cccc(NC(=S)NCCC(c2ccccc2)c2ccccc2)c1,> 100 µM (inactive)
7,Oc1ccc(-c2csc(Nc3cccc4ccccc34)n2)cc1O,1.11 µM
8,Cn1cc(CN2CCC(C(=O)Nc3cccc(-c4cccc(F)c4)c3)CC2)cn1,> 100 µM (inactive)
9,CCn1nc(C)c(CN2CCC(C(=O)Nc3cccc(-c4cccc(F)c4)c3)CC2)c1C,> 100 µM (inactive)
10,Cc1c(Cl)cccc1NC(=S)NCCC(c1ccccc1)c1ccccc1,> 100 µM (inactive)
11,CCn1cc(CN2CCC(C(=O)Nc3cccc(-c4cccc(OC)c4)c3)CC2)cn1,> 100 µM (inactive)
12,O=S(=O)(Nc1ncccn1)c1ccc(NC(=S)NCCC(c2ccccc2)c2ccccc2)cc1,> 100 µM (inactive)
13,S=C(NCCC(c1ccccc1)c1ccccc1)Nc1cccc(Cl)c1,> 100 µM (inactive)
14,Cc1nn(C)c(Cl)c1CN1CCC(C(=O)Nc2cccc(-c3cccc(F)c3)c2)CC1,> 100 µM (inactive)
15,CCn1nc(C)c(CN2CCC(C(=O)Nc3cccc(-c4cccc(Cl)c4)c3)CC2)c1C,> 100 µM (inactive)
16,S=C(NCCC(c1ccccc1)c1ccccc1)Nc1ccccc1,> 100 µM (inactive)
17,CCn1cc(CN2CCC(C(=O)Nc3cccc(-c4cccc(OC)c4)c3)CC2)c(C)n1,> 100 µM (inactive)
18,CC1(c2ccccc2)CC(C)(C)N(C(=S)Nc2ccccc2)c2ccccc21 (stereo not drawn),> 100 µM (inactive)
19,Cc1ccc(C)c(NC(=S)NCCC(c2ccccc2)c2ccccc2)c1,> 100 µM (inactive)
20,S=C(NCCC(c1ccccc1)c1ccccc1)Nc1ccc(Nc2ccccc2)cc1,> 100 µM (inactive)
21,CCCn1ncc(CN2CCC(C(=O)Nc3cccc(-c4cccc(F)c4)c3)CC2)c1C,> 100 µM (inactive)
22,S=C(NCCC(c1ccccc1)c1ccccc1)Nc1ccc(Cl)c(Cl)c1,> 100 µM (inactive)
23,S=C(NCCC(c1ccccc1)c1ccccc1)Nc1ccc(Cl)cc1Cl,> 100 µM (inactive)

# The next lines start with the values.
row,IC50,SMILES
1,> 100 µM (inactive),O=C(Nc1cccc(-c2cccc(Cl)c2)c1)C1CCN(Cc2ccc(CO)o2)CC1
2,> 100 µM (inactive),CCOC(=O)c1ccc(NC(=S)NCCC(c2ccccc2)c2ccccc2)cc1
3,> 100 µM (inactive),S=C(NCCC(c1ccccc1)c1ccccc1)Nc1ccc(Cl)cc1
4,58.7 µM,O=C(CN1C(=O)/C(=C\c2ccco2)SC1=S)Nc1ccccc1C(=O)O
5,> 100 µM (inactive),COC(=O)c1cc(NC(=S)NCCC(c2ccccc2)c2ccccc2)cc(C(=O)OC)c1
6,> 100 µM (inactive),COc1ccc(NC(=S)NCCC(c2ccccc2)c2ccccc2)cc1
7,> 100 µM (inactive),COc1cccc(-c2cccc(NC(=O)C3CCN(Cc4ccc(CO)o4)CC3)c2)c1
8,> 100 µM (inactive),COc1cccc(-c2cccc(NC(=O)C3CCN(Cc4ccc(C)o4)CC3)c2)c1
9,> 100 µM (inactive),COCc1ccc(CN2CCC(C(=O)Nc3cccc(-c4cccc(Cl)c4)c3)CC2)o1
10,87.1 µM,Cc1ccc(NC(=O)CCNS(=O)(=O)c2ccc3[nH]c(=O)oc3c2)cc1C
11,7.97 µM,O=C(CN1C(=O)/C(=C/c2ccco2)SC1=S)Nc1ccc(C(=O)O)cc1
12,> 100 µM (inactive),Cc1ccc(CN2CCC(C(=O)Nc3cccc(-c4cccc(F)c4)c3)CC2)o1
13,1.9 µM,CCn1c(SCC(=O)c2ccc(O)c(O)c2)nnc1-c1ccccc1OC
14,> 100 µM (inactive),O=C(Nc1cccc(-c2cccc(F)c2)c1)C1CCN(Cc2ccc(CO)o2)CC1
15,81.8 µM,Cc1cc(NC(=O)CCNS(=O)(=O)c2ccc3[nH]c(=O)oc3c2)ccc1Br
16,> 100 µM (inactive),NS(=O)(=O)c1ccc(NC(=S)NCCC(c2ccccc2)c2ccccc2)cc1
17,> 100 µM (inactive),Cc1cc(=O)oc2cc(NC(=S)NCCC(c3ccccc3)c3ccccc3)ccc12
18,> 100 µM (inactive),Cc1ccc(NC(=S)NCCC(c2ccccc2)c2ccccc2)cc1
19,> 100 µM (inactive),O=[N+]([O-])c1ccc(NC(=S)NCCC(c2ccccc2)c2ccccc2)cc1
20,8.17 µM,O=C(CN1C(=O)/C(=C/c2ccco2)SC1=S)Nc1cccc(C(=O)O)c1
21,> 100 µM (inactive),COc1ccc(C(=O)CSc2n[nH]c(-c3ccccc3)n2)cc1OC
